# The supplement of paper PMC6045584
# ± gives the standard deviation of the averaged measurements.
# Legend:
# [1] = compound: Cn1cc(C2=Nc3cc(NC(=O)C(N)C4CCCCC4)cc4c3C2=CNNC4=O)cn1; assay: surviving fraction relative to DMSO-only wells; higher = less growth inhibition; conditions: exposure time: 5 days
# In short: (§1)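 Tumour cell lines were grown to log phase and seeded at 250–500 cells per well in 384-well plates. They were exposed continuously to inhibitors at 0.5, 1, 5, 10, 50, 100, 500 and 1000 nM for five days, beginning 24 hours after seeding. Surviving fraction is CellTiter-Glo luminescence normalised to the median of DMSO-only wells.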
# BI-2536 = compound: CC[C@@H]1C(=O)N(C)c2cnc(Nc3ccc(C(=O)NC4CCN(C)CC4)cc3OC)nc2N1C1CCCC1 [BI-2536]; assay: as above; conditions: exposure time: 5 days
# In short: as §1
Test System,surviving fraction ([1]; 0.5 nM),surviving fraction ([1]; 1 nM),surviving fraction ([1]; 5 nM),surviving fraction ([1]; 10 nM),surviving fraction ([1]; 50 nM),surviving fraction ([1]; 100 nM),surviving fraction ([1]; 500 nM),surviving fraction ([1]; 1000 nM),surviving fraction (BI-2536; 0.5 nM),surviving fraction (BI-2536; 1 nM),surviving fraction (BI-2536; 5 nM),surviving fraction (BI-2536; 10 nM),surviving fraction (BI-2536; 50 nM),surviving fraction (BI-2536; 100 nM),surviving fraction (BI-2536; 500 nM),surviving fraction (BI-2536; 1000 nM)
MDAMB231 BREAST,0.95 ± 0.016,0.949 ± 0.031,0.964 ± 0.015,0.953 ± 0.032,0.908 ± 0.029,0.896 ± 0.019,0.544 ± 0.04,0.278 ± 0.01,0.975 ± 0.02,0.954 ± 0.01,0.425 ± 0.015,0.385 ± 0.011,0.39 ± 0.011,0.391 ± 0.0073,0.338 ± 0.013,0.245 ± 0.0063
ASKA SYNOVIAL,0.985 ± 0.08,1 ± 0.075,0.98 ± 0.028,0.992 ± 0.048,0.65 ± 0.054,0.355 ± 0.028,0.174 ± 0.013,0.229 ± 0.0066,0.962 ± 0.057,0.919 ± 0.066,0.228 ± 0.012,0.231 ± 0.0032,0.256 ± 0.012,0.219 ± 0.012,0.185 ± 0.0081,0.238 ± 0.011
SG43 HEADNECK,1.08 ± 0.17,0.969 ± 0.1,0.929 ± 0.19,1.01 ± 0.37,1.11 ± 0.21,1.06 ± 0.15,0.888 ± 0.098,0.968 ± 0.097,0.902 ± 0.22,1.04 ± 0.23,0.734 ± 0.16,0.715 ± 0.099,0.454 ± 0.079,0.323 ± 0.12,0.17 ± 0.051,0.0543 ± 0.014
SAOS2 BONE,1.1493 ± 0.00058,1.08 ± 0.049,1.073 ± 0.0011,1.17 ± 0.077,0.882 ± 0.065,0.728 ± 0.03,0.113 ± 0.017,0.0473 ± 0.0046,1.03 ± 0.036,0.875 ± 0.025,0.083 ± 0.0052,0.0753 ± 0.0023,0.146 ± 0.0046,0.194 ± 0.015,0.129,0.075
SJSA1 BONE,1.023 ± 0.0096,0.984 ± 0.02,1.01 ± 0.061,1.06 ± 0.036,1.03 ± 0.021,1.006 ± 0.0057,0.526 ± 0.044,0.337 ± 0.018,1.01 ± 0.067,1.02 ± 0.068,0.882 ± 0.011,0.252 ± 0.033,0.174 ± 0.01,0.191 ± 0.0061,0.267 ± 0.02,0.236 ± 0.015
CASKI CERVIX,0.918 ± 0.028,0.962 ± 0.082,0.92 ± 0.028,0.949 ± 0.038,0.511 ± 0.043,0.251 ± 0.071,0.057 ± 0.0095,0.0573 ± 0.0038,0.739 ± 0.024,0.427 ± 0.068,0.0607 ± 0.011,0.0583 ± 0.0064,0.0967 ± 0.015,0.075,0.0153 ± 0.0021,0.0183 ± 0.00058
T47D BREAST,0.9916 ± 0.0057,1.02 ± 0.032,1.03 ± 0.041,1.07 ± 0.022,1.12 ± 0.044,1.14 ± 0.059,0.896 ± 0.023,0.661 ± 0.021,0.981 ± 0.018,0.871 ± 0.016,0.551 ± 0.017,0.488 ± 0.01,0.374 ± 0.019,0.53 ± 0.035,0.2606 ± 0.0011,0.276 ± 0.011
CME SYNOVIAL,1.243 ± 0.0098,1.27 ± 0.03,1.3 ± 0.06,1.23 ± 0.059,1.13 ± 0.049,1.02 ± 0.065,0.733 ± 0.036,0.414 ± 0.0087,1.02 ± 0.077,0.988 ± 0.11,0.683 ± 0.18,0.378 ± 0.031,0.278 ± 0.023,0.237 ± 0.01,0.259 ± 0.004,0.279 ± 0.011
HMT3552 BREAST,0.92,1.07,1.02,0.936,0.999,1.03,0.176,0.097,0.781,0.352,0.14,0.192,0.221,0.205,0.121,0.11
HCC1954 BREAST,0.772 ± 0.092,0.584 ± 0.042,0.927 ± 0.019,0.889 ± 0.035,0.571 ± 0.011,0.6015 ± 0.0014,0.1713 ± 0.0011,0.0897 ± 0.0074,0.883 ± 0.13,0.766 ± 0.2,0.245 ± 0.035,0.235 ± 0.057,0.433 ± 0.0095,0.781 ± 0.0014,0.89 ± 0.035,0.699 ± 0.014
CADOES1 SOFT TISSUE,0.973 ± 0.13,0.933 ± 0.073,0.868 ± 0.011,0.905 ± 0.051,0.88 ± 0.071,0.988 ± 0.13,0.798 ± 0.068,0.558 ± 0.027,1.04 ± 0.059,0.939 ± 0.059,0.872 ± 0.093,0.792 ± 0.12,0.193 ± 0.025,0.0877 ± 0.018,0.0517 ± 0.016,0.0513 ± 0.0051
HCC70 BREAST,1.04 ± 0.035,1.19 ± 0.054,1.13 ± 0.046,1.09 ± 0.063,0.758 ± 0.028,0.313 ± 0.076,0.0723 ± 0.014,0.042 ± 0.0052,1.08 ± 0.026,0.933 ± 0.12,0.57 ± 0.047,0.35 ± 0.053,0.623 ± 0.041,0.795 ± 0.043,0.593 ± 0.042,0.391 ± 0.045
SIHA CERVIX,1.053 ± 0.0049,0.972 ± 0.02,1.06 ± 0.086,1.06 ± 0.043,1.02 ± 0.05,1.05 ± 0.07,0.917 ± 0.059,0.524 ± 0.024,1.11 ± 0.027,1.04 ± 0.065,0.351 ± 0.025,0.263 ± 0.031,0.262 ± 0.016,0.301 ± 0.0078,0.214 ± 0.014,0.147 ± 0.015
HCC78 LUNG,0.91 ± 0.095,1.13 ± 0.26,0.993 ± 0.07,1.03 ± 0.17,0.887 ± 0.11,0.471 ± 0.29,0.0453 ± 0.011,0.0623 ± 0.013,0.932 ± 0.33,0.781 ± 0.13,0.16 ± 0.03,0.091 ± 0.031,0.0883 ± 0.011,0.156 ± 0.023,0.112 ± 0.021,0.0973 ± 0.01
NOS1 BONE,1 ± 0.16,0.948 ± 0.081,1.11 ± 0.1,1.05 ± 0.1,0.813 ± 0.075,0.872 ± 0.064,0.339 ± 0.009,0.195 ± 0.013,1.01 ± 0.12,0.839 ± 0.089,0.338 ± 0.056,0.296 ± 0.046,0.341 ± 0.074,0.387 ± 0.002,0.334 ± 0.034,0.328 ± 0.02
OS25HAL BONE,1.014 ± 0.01,1.03 ± 0.042,1.005 ± 0.0044,1.012 ± 0.0078,0.978 ± 0.045,0.984 ± 0.012,0.0757 ± 0.017,0.0387 ± 0.0011,1.003 ± 0.006,0.933 ± 0.064,0.0997 ± 0.016,0.0533 ± 0.0029,0.0483 ± 0.0015,0.0337 ± 0.004,0.0317 ± 0.0023,0.037 ± 0.002
NY BONE,1 ± 0.015,0.984 ± 0.0061,1.03 ± 0.024,0.95 ± 0.042,0.458 ± 0.014,0.182 ± 0.014,0.0577 ± 0.0055,0.0377 ± 0.0055,0.988 ± 0.025,0.851 ± 0.01,0.051 ± 0.0035,0.0633 ± 0.0051,0.17 ± 0.023,0.305 ± 0.0079,0.372 ± 0.0087,0.298 ± 0.03
